Data from patent US7037644B1, “Means and methods for monitoring non-nucleoside reverse transcriptase inhibitor antiretroviral therapy and guiding therapeutic decisions in the treatment of HIV/AIDS” (ViroLogic, Inc., priority 1998, dated 2006).
Entries after “also recorded” stand apart in the source; their conditions may differ.

How the values were obtained:
[1] = system: RTV-644 (RT K101E, G190S); assay: Phenotypic susceptibility assay (patient RTV); assay type: cell-based, HIV-1; settings: for decrease in susceptibility (fold, IC50): patient RTV pool; for change in susceptibility: patient virus vs reference virus
From the text: (§1) The resistance test vectors containing a functional luciferase gene cassette were constructed and host cells were transfected with the resistance test vector DNA. The resistant test vectors contained patient-derived reverse transcriptase and protease sequences that were either susceptible or resistant to the antiretroviral agents, such as nucleoside reverse transcriptase inhibitors, non-nucleoside reverse transcriptase inhibitors and protease inhibitors. The resistance test vector viral particles produced by transfecting the resistance test vector DNA into host cells, either in the presence or absence of protease inhibitors, were used to infect target host cells grown either in the absence of NRTI or NNRTI or in the presence of increasing concentrations of the drug. The amount of luciferase activity produced in infected target host cells in the presence of drug was compared to the amount of luciferase produced in infected target host cells in the absence of drug. Drug resistance was measured as the amount of drug required to inhibit by 50% the luciferase activity detected in the absence of drug (inhibitory concentration 50%, IC50). The IC50 values were determined by plotting percent drug inhibition vs. log10 drug concentration.
Host cells were seeded in 10-cm-diameter dishes and were transfected several days after plating with resistance test vector plasmid DNA and the envelope expression vector. Transfections were performed using a calcium-phosphate precipitation procedure. The cell culture media containing the DNA precipitate was replaced with fresh medium, from one to 24 hours, after transfection. Cell culture media containing resistance test vector viral particles was harvested one to four days after transfection and was passed through a […] filter before being stored at […]. HIV capsid protein (p24) levels in the harvested cell culture media were determined by an EIA method as described by the manufacturer (SIAC; Frederick, Md.). Before infection, target cells (293 and 293/T) were plated in cell culture media. […] The inhibitory effect of the drug was determined using the following equation: % luciferase inhibition=1−(RLUluc [drug]÷RLUluc)×100 where RLUluc [drug] is the relative light unit of luciferase activity in infected cells in the presence of drug and RLUluc is the Relative Light Unit of luciferase activity in infected cells in the absence of drug. […]
A resistance test vector was constructed as described in Example 1 from a patient sample designated 97-644. […] RTV-644 was then tested using the phenotypic susceptibility assay to determine accurately and quantitatively the level of susceptibility to a panel of anti-retroviral drugs. […] An IC50 was determined for each drug tested. […]

[2] = system: RTV-1057, patient 98-1057 (RT A98G, Y181C); assay: Phenotypic susceptibility assay (patient RTV); assay type: cell-based, HIV-1; settings: patient RTV pool
Protocol: (§2) The resistance test vectors containing a functional luciferase gene cassette were constructed and host cells were transfected with the resistance test vector DNA. The resistant test vectors contained patient-derived reverse transcriptase and protease sequences that were either susceptible or resistant to the antiretroviral agents, such as nucleoside reverse transcriptase inhibitors, non-nucleoside reverse transcriptase inhibitors and protease inhibitors. […] The IC50 values were determined by plotting percent drug inhibition vs. log10 drug concentration.
(§3) Host cells were seeded in 10-cm-diameter dishes and were transfected several days after plating with resistance test vector plasmid DNA and the envelope expression vector. […] HIV capsid protein (p24) levels in the harvested cell culture media were determined by an EIA method as described by the manufacturer (SIAC; Frederick, Md.). […] The inhibitory effect of the drug was determined using the following equation: % luciferase inhibition=1−(RLUluc [drug]÷RLUluc)×100 where RLUluc [drug] is the relative light unit of luciferase activity in infected cells in the presence of drug and RLUluc is the Relative Light Unit of luciferase activity in infected cells in the absence of drug. […]

[3] = system: patient 487 virus (RT M184V, K103N); assay: Phenotypic susceptibility assay (patient virus); assay type: cell-based, HIV; settings: patient 487, FIG. 4
From the text: Phenotypic drug susceptibility and resistance profile: patient 487. […] This is an example of the first pattern of NNRTI susceptibility/resistance.
as §2, §3

P225H-RTV = assay: Phenotypic susceptibility assay (site directed mutant RTV); assay type: cell-based, HIV-1; settings: P225H alone vs wild type control RTV
From the text: as §1
(§4) Host cells were seeded in 10-cm-diameter dishes and were transfected several days after plating with resistance test vector plasmid DNA and the envelope expression vector. Transfections were performed using a calcium-phosphate precipitation procedure. The cell culture media containing the DNA precipitate was replaced with fresh medium, from one to 24 hours, after transfection. Cell culture media containing resistance test vector viral particles was harvested one to four days after transfection and was passed through a […] filter before being stored at […]. HIV capsid protein (p24) levels in the harvested cell culture media were determined by an EIA method as described by the manufacturer (SIAC; Frederick, Md.). Before infection, target cells (293 and 293/T) were plated in cell culture media. Control infections were performed using cell culture media from mock transfections (no DNA) or transfections containing the resistance test vector plasmid DNA without the envelope expression plasmid. One to three or more days after infection the media was removed and cell lysis buffer (Promega) was added to each well. Cell lysates were assayed for luciferase activity (FIG. 3). The inhibitory effect of the drug was determined using the following equation: % luciferase inhibition=1−(RLUluc [drug]÷RLUluc)×100 where RLUluc [drug] is the relative light unit of luciferase activity in infected cells in the presence of drug and RLUluc is the Relative Light Unit of luciferase activity in infected cells in the absence of drug. IC50 values were obtained from the sigmoidal curves that were generated from the data by plotting the percent inhibition of luciferase activity vs. the log10 drug concentration. The drug inhibition curves are shown in (FIG. 3).
(§5) Genotypic changes that are observed to correlate with changes in phenotypic patterns of drug susceptibility are evaluated by construction of resistance test vectors containing the specific mutation on a defined, wild-type (drug susceptible) genetic background. Mutations may be incorporated alone and/or in combination with other known drug resistance mutations that are thought to modulate the susceptibility of HIV to a certain drug or class of drugs. Mutations are introduced into the resistance test vector through any of the widely known methods for site-directed mutagenesis. In one embodiment of this invention the mega-primer PCR method for site-directed mutagenesis is used. […]

[4] = system: RTV with P236L plus K103N, Y181C or both; assay: as above; assay type: cell-based, HIV-1; settings: P236L with K103N and/or Y181C vs RTV lacking P236L
From the text: as §1, §4, §5

[5] = system: K103N and Y181C double mutant; assay: as above; assay type: cell-based, HIV-1; settings: FIG. 5
From the text: Phenotypic drug susceptibility and resistance profile of site directed reverse transcriptase mutants.
as §2, §3

[6] = system: individual virus clones of patient 302: (K103N, P225H) compared with (K103N, I135M, R211K); assay: Phenotypic susceptibility assay (patient virus clones); assay type: cell-based, HIV; settings: FIG. 8G
From the text: as §1, with “Drug resistance was measured as the amount of drug required to inhibit by 50% the luciferase activity detected in the absence of drug (inhibitory concentration 50%, IC50).” left out
Host cells were seeded in 10-cm-diameter dishes and were transfected several days after plating with resistance test vector plasmid DNA and the envelope expression vector. […] HIV capsid protein (p24) levels in the harvested cell culture media were determined by an EIA method as described by the manufacturer (SIAC; Frederick, Md.). […]

Structure (SMILES)	decrease in susceptibility (fold, IC50) [1] [fold]	change in susceptibility [1]	decrease in susceptibility (fold, IC50) [2] [fold]	change in susceptibility [3]	change in susceptibility (P225H-RTV)	change in susceptibility [4]	change in susceptibility [5]	effect of P225H on resistance associated with K103N [6]
CC(C)Nc1cccnc1N1CCN(C(=O)c2cc3cc(NS(C)(=O)=O)ccc3[nH]2)CC1 [delavirdine]	2.5	little or no resistance	35	increased resistance	more susceptible; also recorded: increase; also recorded: increase3s susceptibility	less susceptible; also recorded: additional reduction; also recorded: severe resistance	further increase in resistance	reduces the amount delavirdine resistance
O=C1Nc2ccc(Cl)cc2[C@@](C#CC2CC2)(C(F)(F)F)O1 [efavirenz]						restores a significant portion of the loss of susceptibility		
Cc1ccnc2c1NC(=O)c1cccnc1N2C1CC1 [nevirapine]	600	resistant	610	increased resistance	No significant change; also recorded: little or no change		further increase in resistance	does not alter
